Experimental data as given in patent publication EP2626066A1, “Combination therapy comprising selective VEGFR-2 inhibitors and MEK inhibitors” (Max-Planck-Gesellschaft zur Förderung der Wissenschaften …, priority 2012, dated 2013).

Columns and labels:
H1650 = conditions: H1650, very low VEGFR2; daily oral gavage ZD6474 50 mg/kg, PD0325901 12mg/kg; start at about 50mm^3; Fig. 10
Description: (§1) All animal procedures were approved by the local animal protection committee and the local authorities. H1975, H441 and H1650 cells (5x10^6 cells) were injected subcutaneously into male nude mice. […] Mice were treated daily by oral gavage of ZD6474 (50 mg/kg, solved in vehicle), PD0325901 (12mg/kg, dissolved in propylene glycol:water (1:1)), the combination of ZD6474 (50 mg/kg) and PD0325901 (12mg/kg) or vehicle detergent alone. Tumor size of tumors expressing high levels of VEGFR2 (H441, H1975) and tumor with low expression of VEGFR2 (H1650) were monitored measuring perpendicular diameters.
(§2) All animal procedures were approved by the local animal protection committee and the local authorities. High VEGFR2 expressing tumor cell H1975 and H441 (5x10^6 cells), and very low VEGFR2 expressing cells H1650 (5x10^6 cells) were injected subcutaneously into male nude mice. […] Mice were treated daily by oral gavage of ZD6474 (50 mg/kg, solved in vehicle), PD0325901 (12mg/kg, dissolved in propylene glycol:water (1:1)), the combination of ZD6474 (50 mg/kg) and PD0325901 (12mg/kg) or vehicle detergent alone. Tumor size of tumors expressing high levels of VEGFR2 (H441, H1975) and tumor with low expression of VEGFR2 (H1650) were monitored during treatment measuring perpendicular diameters.

H1975 = tested on: H1975
Description: as §1, §2

H441 = conditions: H441, high VEGFR2; daily oral gavage ZD6474 50 mg/kg, PD0325901 12mg/kg; start at about 50mm^3; Fig. 10
Description: as §1, §2

H1975 cells = assay: VEGF secretion ELISA assay, H1975 cells; type: cell-based, human; conditions: H1975 expressing ZD6474 resistance mutation of VEGFR2; in vitro
Description: Cells were either treated with the indicated compounds or DMSO alone. After 4 hours cells were stimulated with 40 ng/ml of VEGF165, or incubated in medium containing DMSO only. Cells were then washed twice with PBS and supplemented with serum-free medium and allowed to secrete VEGF for 48 hours. Secretion of VEGF into cell culture supernatants was measured by Human VEGF Quantikine Kit (R&D Systems) according to manufacturer's instructions.

In the case of `O=C(NOC[C@H](O)CO)c1ccc(F)c(F)c1Nc1ccc(I)cc1F` [PD0325901, N-[(2R)-2,3-dihydroxypropoxy]-3,4-difluoro-2-[(2-fluoro-4-iodophenyl)amino]-benzamide], the tumor volume (H1650) was “increased alike”, the tumor volume (H1975; H1975, high VEGFR2, daily oral gavage ZD6474 50 mg/kg, PD0325901 12mg/kg, start at about 50mm^3, Fig. 10) was “did not reduce the tumor volume” and the tumor volume (H441) was “did not reduce the tumor volume”.

`COc1cc2c(Nc3ccc(Br)cc3F)ncnc2cc1OCC1CCN(C)CC1` [Vandetanib, N-(4-bromo-2-fluorophenyl)-6-methoxy-7-[(1-methylpiperidin-4-yl)methoxy]quinazolin-4-amine] was tested, and the “ZD6474-mediated inhibition of VEGF secretion” value (H1975 cells) was “abolished” and the “tumor-growth inhibiting effects of the compound” value (H1975; H1975 expressing ZD6474 resistance mutation of VEGFR2, in vivo, Fig. 1e) was “suppressed”.
